Values after ≈ are worked out from the molar mass of the structure shown.
Experiments:
[1] = molecular target: T1, PBP3 from Acinetobacter baumannii (ATCC 19606) (Acinetobacter baumannii, UniProt A0ABX6CK25); experiment: Bocillin-FL fluorescence polarization competition binding, A. baumannii PBP3; conditions: fluorescence polarization competition binding assay using Bocillin-FL; read-out: A. baumannii PBP3 Potency
T1 sequence (A0ABX6CK25 64-610): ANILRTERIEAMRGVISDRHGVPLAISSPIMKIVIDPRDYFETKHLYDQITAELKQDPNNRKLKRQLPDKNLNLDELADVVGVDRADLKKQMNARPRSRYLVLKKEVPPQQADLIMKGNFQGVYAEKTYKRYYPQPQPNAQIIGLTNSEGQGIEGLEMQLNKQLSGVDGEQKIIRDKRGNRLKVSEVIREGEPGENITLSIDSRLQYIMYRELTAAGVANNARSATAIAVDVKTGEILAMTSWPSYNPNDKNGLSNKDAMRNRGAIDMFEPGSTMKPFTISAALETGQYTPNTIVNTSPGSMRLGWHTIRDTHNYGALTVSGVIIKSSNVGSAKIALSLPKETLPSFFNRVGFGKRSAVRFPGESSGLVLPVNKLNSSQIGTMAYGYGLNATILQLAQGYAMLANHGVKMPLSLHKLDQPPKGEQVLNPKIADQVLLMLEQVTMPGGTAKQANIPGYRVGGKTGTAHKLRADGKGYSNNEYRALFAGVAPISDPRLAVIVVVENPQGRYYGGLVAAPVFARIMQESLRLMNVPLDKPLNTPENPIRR
In short: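 Purified PBP was preincubated with inhibitor (E. coli PBP3 1.5 μM, 30 min; P. aeruginosa PBP3 0.75 μM, A. baumannii PBP3 0.2 μM and PBP1a 1 μM, 15 min), then Bocillin-FL (0.1 μM; 0.05 μM for PBP1a) added and FP read up to 60 min. EC50 = 50% loss of bound probe.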

E. coli AG100 = experiment: microbe, parasite or virus in culture; format: cell-based; conditions: Escherichia coli, AG100, read-out: MIC E. coli AG100
E. coli 901C = experiment: microbe, parasite or virus in culture; format: cell-based; conditions: Escherichia coli, read-out: MIC E. coli 901C
K. pneumoniae UMM = experiment: microbe, parasite or virus in culture; format: cell-based; conditions: Klebsiella pneumoniae, read-out: MIC K. pneumoniae UMM
P. aeruginosa ATCC 27853 = experiment: microbe, parasite or virus in culture; format: cell-based; conditions: Pseudomonas aeruginosa, ATCC27853, read-out: MIC P. aeruginosa ATCC 27853
A. baumannii ATCC 19606 = experiment: microbe, parasite or virus in culture; format: cell-based; conditions: Acinetobacter baumannii, ATCC19606, read-out: MIC, A. baumannii ATCC 19606
P. aeruginosa ATCC 35151 = experiment: microbe, parasite or virus in culture; format: cell-based; conditions: Pseudomonas aeruginosa, ATCC35151, read-out: Minimum inhibitory concentration, P. aeruginosa ATCC 35151
A. baumannii CDC-0083 = experiment: microbe, parasite or virus in culture; format: cell-based; conditions: Acinetobacter baumannii, CDC0083, read-out: MIC, A. baumannii CDC-0083
[2] = tested on: B. thailandensis ATCC 700388; experiment: microbe, parasite or virus in culture; format: cell-based; conditions: Burkholderia thailandensis, ATCC700388, read-out: Minimum inhibitory concentration (MIC), B. thailandensis ATCC 700388
P. aeruginosa CDC-0110 = experiment: microbe, parasite or virus in culture; format: cell-based; conditions: Pseudomonas aeruginosa, CDC0110, read-out: Minimum inhibitory concentration, P. aeruginosa CDC-0110
N. gonorrhoeae WHO Z = experiment: Liquid broth MIC in Fastidious broth; conditions: Neisseria gonorrhoeae, read-out: Minimum Inhibitory Concentration (MIC), N. gonorrhoeae WHO Z

| SMILES | IC50 [1] [µM] | MIC (E. coli AG100) [µg/mL] | MIC (E. coli 901C) [µg/mL] | MIC (K. pneumoniae UMM) [µg/mL] | MIC (P. aeruginosa ATCC 27853) [µg/mL] | MIC (A. baumannii ATCC 19606) [µg/mL] | MIC (P. aeruginosa ATCC 35151) [µg/mL] | MIC (A. baumannii CDC-0083) [µg/mL] | MIC [2] [µg/mL] | MIC (P. aeruginosa CDC-0110) [µg/mL] | MIC (N. gonorrhoeae WHO Z) [µg/mL] |
| --- | --- | --- | --- | --- | --- | --- | --- | --- | --- | --- | --- |
| CS(=O)(=O)N1CCN(C(=O)N[C@@H](C(=O)N[C@H]2Cc3ccc(F)c(C(=O)O)c3OB2O)c2ccc(P(=O)(O)O)c(F)c2)C1=O (single isomer, unassigned) [Example 19] | < 10 | > 128 | < 1 | > 128 | > 128 | > 128 | 2 to 4 (≈ 3.09 to 6.19 µM) | > 128 | 32 to 64 (≈ 49.5 to 99 µM) | > 128 | < 1 |
| CCN1CCN(C(=O)NC(C(=O)N[C@H]2Cc3cccc(C(=O)O)c3OB2O)c2ccc(CP(=O)(O)O)cc2)C(=O)C1=O (stereo partly drawn) [Example 20, (3R)-3-(2-(4-ethyl-2,3-dioxopiperazine-1-carboxamido)-2-(4-(phosphonomethyl)phenyl)acetamido)-2-hydroxy-3,4-dihydro-2H-benzo[e][1,2]oxaborinine-8-carboxylic acid] | < 10 | 8 to 16 (≈ 13.3 to 26.6 µM) | < 1 | 32 to 64 (≈ 53.1 to 106 µM) | > 128 | 32 to 64 (≈ 53.1 to 106 µM) | – | – | – | – | < 1 |
| CCN1CCN(C(=O)NC(C(=O)N[C@H]2Cc3cccc(C(=O)O)c3OB2O)c2ccc(P(=O)(O)O)c(O)c2)C(=O)C1=O (stereo partly drawn) [Example 21, (3R)-3-(2-(4-ethyl-2,3-dioxopiperazine-1-carboxamido)-2-(3-hydroxy-4-phosphonophenyl)acetamido)-2-hydroxy-3,4-dihydro-2H-benzo[e][1,2]oxaborinine-8-carboxylic acid] | < 10 | 8 to 16 (≈ 13.2 to 26.5 µM) | < 1 | 8 to 16 (≈ 13.2 to 26.5 µM) | 8 to 16 (≈ 13.2 to 26.5 µM) | 2 to 4 (≈ 3.31 to 6.62 µM) | – | – | – | – | < 1 |
| CC(=O)NC(C(=O)N[C@H]1Cc2cccc(C(=O)O)c2OB1O)c1ccc(P(=O)(O)O)cc1 (stereo partly drawn) [Example 26, (3R)-3-(2-acetamido-2-(4-phosphonophenyl)acetamido)-2-hydroxy-3,4-dihydro-2H-benzo[e][1,2]oxaborinine-8-carboxylic acid] | < 10 | > 128 | 8 to 16 (≈ 17.3 to 34.6 µM) | > 128 | > 128 | > 128 | – | – | – | – | 16 to 32 (≈ 34.6 to 69.2 µM) |
| CS(=O)(=O)N1CCN(C(=O)NC(C(=O)N[C@H]2Cc3cccc(C(=O)O)c3OB2O)c2ccc(P(=O)(O)O)c(F)c2O)C1=O (stereo partly drawn) [Example 48, (3R)-3-(2-(3-fluoro-2-hydroxy-4-phosphonophenyl)-2-(3-(methylsulfonyl)-2-oxoimidazolidine-1-carboxamido)acetamido)-2-hydroxy-3,4-dihydro-2H-benzo[e][1,2]oxaborinine-8-carboxylic acid] | 50 to 250 | > 128 | < 1 | > 128 | > 128 | > 128 | – | – | – | – | 1 to 2 (≈ 1.55 to 3.1 µM) |

Source: US20240270762A1, “PENICILLIN-BINDING PROTEIN INHIBITORS” (priority 2021, published 2024)
